Source: patent US20070275984A1, “Novel Thieno-Pyridine and Thieno-Pyrimidine Derivatives and Their Use as Positive Allosteric Modulators of Mglur2-Receptors” (JANSSEN PHARMACEUTICA N.V., priority 2004, published 2007)
“And” between values parts separate entries of the source, which are not always exact repeats. Equal entries are not always repeated.

How the values were obtained:
native rat mGluR2 = molecular target: T1, native rat mGluR2 (Rattus norvegicus, UniProt P31421); test: [35S]GTPγS binding assay using cortical rat brain membranes, potentiation of a selective mGluR2 agonist; format: biochemical; conditions: for Activity: left-ward shift of agonist mGluR2 concentration-response curve: rat cortical membranes, selective mGluR2 agonist such as LY379268, in the presence of 3 or 10 μM of positive allosteric modulator
T1 construct: from tissue; host or cells: cerebral cortex of Sprague-Dawley rats (membrane preparation)
From the text: The [^35S]GTPγS binding is a functional membrane-based assay used to study G-protein coupled receptor (GPCR) function. This method is using a binding assay to assess the initial step in receptor-mediated G protein activation in membranes prepared from cells expressing recombinant GPCR or using membranes from discrete area of the rat brain. In brief, the assay is measuring the activation of G proteins by catalyzing the exchange of guanosine 5′-diphosphate (GDP) by guanosine 5′-triphosphate (GTP) at the α subunit. The GTP-bounded G proteins dissociate into two subunits, Gα-GTP and Gβγ, which in turn regulate intracellular enzymes and ion channels. GTP is rapidly hydrolysed by the Gα-subunit (GTPases) and the G protein is deactivated and ready for new GTP exchange cycle (Harper (1998) Curr Protoc Pharmacol 2.6.1-10, John Wiley & Sons, Inc.). [^35S]GTPγS, a non-hydrolyzed analogue of GTP, is used for this purpose.
This method is widely used to study receptor activation of G protein in membranes prepared from rat brain tissue, including mGluR2 receptors (Schaffhauser et al 2003, Pinkerton et al, 2004). mGluR2 receptors are expressed in the rat brain cortex (Mutel et al (1998) J. Neurochem. 71:2558-64; Schaffhauser et al (1998) Mol. Pharmacol. 53:228-33) and are coupled to Gαi-protein, a preferential coupling for this method.
[^35S]GTPγS binding assay using cortical rat brain membranes preparation was used and adapted from Schaffhauser et al ((2003) Mol. Pharmacol. 4:798-810) for the detection of the positive allosteric modulator properties of the compounds of this invention on native rat mGluR2. In order to eliminate the possible interference with group III Gαi-protein coupled mGluRs (mGluR4, mGluR7, mGluR8; mGluR6 is not expressed in the cortex (Laurie et al (1997) Neuropharmacol. 36:145-52)), the potentiation of the response to a selective mGluR2 agonist, such as DCG-IV (Cartmell et al. (1998) Br. J. Pharmacol. 123(3):497-504) or LY379268 (Monn et al. (1999) J. Med. Chem 42:1027-40), by compounds described in the present invention was performed.
Membrane preparation. Cortices were dissected out from brains of 200-300 g Sprague-Dawley rats (Charles River Laboratories, L'Arbresle, France). Tissues were homogenized in 6 volumes (vol/wt) of 10% sucrose at 4° C. using a glass-teflon homogenizer. The homogenate was centrifuged at 1250 g for 10 min, and the supernatant was centrifuged at 40,000 g for 20 min (4° C.). The pellet was resuspended in 25 ml water using a Polytron disrupter (Kinematica AG, Luzern, Switzerland) and centrifuged for 10 min at 3000 g. (4° C.). The supernatant was centrifuged at 40,000 g for 20 min (4° C.). The supernatant was discarded and the pellet washed twice by resuspension in 10 volumes 5 mM HEPES-KOH, pH 7.4. The homogenate was frozen and thawed twice and centrifuged at 40,000 g for 20 min. The final pellet was resuspended in 5 mM HEPES-KOH, pH 7.4 and stored at −80° C. before its use. Protein concentration was determined by the Bradford method (Bio-Rad protein assay, Reinach, Switzerland) with bovine serum albumin as standard.
[^35S]GTPγS binding assay. Measurement of mGluR2 positive allosteric modulators properties in rat cortical membranes was performed as follows: rat cortical membrane (1.5 μg) were incubated in 96-well microplates for 15 min at 30° C. in assay buffer (50 mM HEPES pH 7.4, 100 mM NaCl, 5 mM MgCl2, 10 μM GDP, 10 μg/ml saponin, EGTA 0.2 mM) with increasing concentrations of positive allosteric modulator (from 1 nM to 10 μM) and a minimal concentration of DCG-IV or LY379268, a selective mGluR2 agonist, that has been determined in previous experiments and that corresponds to the EC20, a concentration that gives 20% of the maximal response of the agonist, and is in accordance to published data (Pin et al. (1999) Eur. J. Pharmacol. 375:277-294). […]

T1 sequence (P31421 19-872): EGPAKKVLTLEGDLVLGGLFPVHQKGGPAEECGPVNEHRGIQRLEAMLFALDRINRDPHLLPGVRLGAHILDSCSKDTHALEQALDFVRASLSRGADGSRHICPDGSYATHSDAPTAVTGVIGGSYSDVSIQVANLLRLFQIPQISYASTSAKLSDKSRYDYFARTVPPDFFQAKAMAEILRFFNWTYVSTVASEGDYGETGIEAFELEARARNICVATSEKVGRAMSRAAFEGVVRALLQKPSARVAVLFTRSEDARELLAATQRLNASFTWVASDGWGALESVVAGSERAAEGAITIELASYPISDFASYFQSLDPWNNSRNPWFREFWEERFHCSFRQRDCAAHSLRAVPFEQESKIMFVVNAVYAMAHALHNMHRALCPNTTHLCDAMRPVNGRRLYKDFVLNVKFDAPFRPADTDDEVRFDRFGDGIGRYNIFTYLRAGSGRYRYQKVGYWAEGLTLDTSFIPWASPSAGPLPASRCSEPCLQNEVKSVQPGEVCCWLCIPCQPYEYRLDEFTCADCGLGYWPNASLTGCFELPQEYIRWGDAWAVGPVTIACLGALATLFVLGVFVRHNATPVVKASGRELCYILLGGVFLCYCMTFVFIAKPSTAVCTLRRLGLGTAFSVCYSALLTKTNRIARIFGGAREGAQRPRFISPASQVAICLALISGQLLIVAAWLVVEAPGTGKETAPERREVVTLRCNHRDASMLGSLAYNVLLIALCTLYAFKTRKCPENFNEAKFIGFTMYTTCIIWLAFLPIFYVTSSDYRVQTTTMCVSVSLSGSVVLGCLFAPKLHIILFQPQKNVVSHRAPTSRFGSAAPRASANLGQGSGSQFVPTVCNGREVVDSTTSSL

| Compound | Activity: left-ward shift of agonist mGluR2 concentration-response curve (native rat mGluR2) | melting point | increase of the [GTPi^5S] binding induced by 50 nM of DCG-IV (native rat mGluR2; 10 μM compound together with mGluR2 agonist, compared to agonist alone, Figure B) | agonistic activity when tested in the absence of 50 nM DCG-IV (native rat mGluR2; 10 μM compound, compared to buffer value (0% of maximal response), Figure B) |
| --- | --- | --- | --- | --- |
| Cc1nc(NCc2ccccc2)c2cc(C)sc2n1 [Compound 5, N-benzyl-2,6-dimethylthieno[2,3-d]pyrimidin-4-amine] | + (left-ward shift of agonist mGluR2 concentration-response curve [<2-fold]) | 124.2 °C | – | – |
| COc1nc(NCCc2ccccc2)c2cc(C)sc2n1 [Compound 15, 2-methoxy-6-methyl-N-phenethylthieno[2,3-d]pyrimidin-4-amine] | +++ (left-ward shift of agonist mGluR2 concentration-response curve [>3.5-fold]) | 138.5 °C | – | – |
| COc1ccc(CCNc2nc(C)nc3sc(C)cc23)cc1 [Compound 28, N-(4-methoxyphenethyl)-2,6-dimethylthieno[2,3-d]pyrimidin-4-amine] | – | 129 °C | significantly potentiated | no statistically significant agonistic activity |
| Cc1nc(NCCc2ccc(N)cc2)c2cc(C)sc2n1 [Compound 42, N-(4-aminophenethyl)-2,6-dimethylthieno[2,3-d]pyrimidin-4-amine] | ++ (left-ward shift of agonist mGluR2 concentration-response curve [2- to 3.5-fold]) | 127 °C | – | – |
| CC(=O)Nc1ccc(CCNc2nc(C)nc3sc(C)cc23)cc1 [Compound 43, N-(4-(2-(2,6-dimethylthieno[2,3-d]pyrimidin-4-ylamino)ethyl)-phenyl)acetamide] | ++ (left-ward shift of agonist mGluR2 concentration-response curve [2- to 3.5-fold]) | 248 °C | – | – |
| Cc1nc(NCCc2ccc(OCc3nn[nH]n3)cc2)c2cc(C)sc2n1 [Compound 46, N-(4-((2H-tetrazol-5-yl)methoxy)phenethyl)-2,6-dimethylthieno[2,3-d]pyrimidin-4-amine] | +++ (left-ward shift of agonist mGluR2 concentration-response curve [>3.5-fold]) | 205 °C | – | – |
| Cc1nc(NCCc2cccnc2)c2cc(C)sc2n1 [Compound 49, 2,6-dimethyl-N-(2-(pyridin-3-yl)ethyl)thieno[2,3-d]pyrimidin-4-amine] | + (left-ward shift of agonist mGluR2 concentration-response curve [<2-fold]) | 138 °C | – | – |
| OCc1cc2c(NCCc3ccccc3)ncnc2s1 [Compound 58, (4-(phenethylamino)thieno[2,3-d]pyrimidin-6-yl)methanol] | ++ (left-ward shift of agonist mGluR2 concentration-response curve [2- to 3.5-fold]) | 155 °C and 155 to 155.5 °C | – | – |
| COc1ccc(CCNc2nc(C)nc3sc(Cc4ccccc4)cc23)cc1 [Compound 61, N-(4-methoxyphenethyl)-6-benzyl-2-methylthieno[2,3-d]pyrimidin-4-amine] | ++ (left-ward shift of agonist mGluR2 concentration-response curve [2- to 3.5-fold]) | – | – | – |
| CCc1cc2c(NCCCc3ccccc3)ncnc2s1 [Compound 75, 6-ethyl-N-(3-phenylpropyl)thieno[2,3-d]pyrimidin-4-amine] | ++ (left-ward shift of agonist mGluR2 concentration-response curve [2- to 3.5-fold]) | 124.5 °C | – | – |
| CCCc1cc2c(NCCc3ccccc3)ncnc2s1 [Compound 79, N-phenethyl-6-propylthieno[2,3-d]pyrimidin-4-amine] | +++ (left-ward shift of agonist mGluR2 concentration-response curve [>3.5-fold]) | 110.5 °C | – | – |
| CCCc1cc2c(NCCc3ccc(O)cc3)ncnc2s1 [Compound 82, 4-(2-(6-propylthieno[2,3-d]pyrimidin-4-ylamino)ethyl)phenol] | +++ (left-ward shift of agonist mGluR2 concentration-response curve [>3.5-fold]) | 123.5 °C | – | – |
| CCc1cc2c(NCCc3ccccc3)ccnc2s1 [Compound 96, 2-ethyl-N-phenethylthieno[2,3-b]pyridin-4-amine] | +++ (left-ward shift of agonist mGluR2 concentration-response curve [>3.5-fold]) | 88 °C | – | – |
